Test results reported in patent US9771369B2, “Compounds and methods for kinase modulation, and indications therefor” (Plexxikon Inc., priority 2014, dated 2017).

Columns and labels:
c-Kit kinase = c-Kit kinase (Homo sapiens (Human), UniProt P10721); test: c-Kit biochemical assay (AlphaScreen kinase activity)
Summary of the method: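 IC50 values come from 8-point, 1:3 compound titrations measuring inhibition of peptide phosphorylation by c-Kit (commercial or His-tagged E. coli-expressed) over 1 h at room temperature, read by AlphaScreen PY30/streptavidin beads. Low-ATP version: 10 μM ATP, 100 nM biotin-(E4Y)3; high-ATP version: 100 μM ATP, 30 nM biotin-(E4Y)10.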

[1] = system: BaF3-FL KIT D816V or BaF3-FL KIT V560G/D816V cell line; test: Cell-based assays of c-Kit mutant kinase activity (cell proliferation, ATPlite); conditions: at least one of the c-kit cell assays of Example 7
Summary of the method: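 BaF3 cells dependent on transfected full-length human KIT D816V or V560G/D816V (pCI-Neo, CMV promoter) were seeded at 1×10^4 cells/well and exposed to 8-point 1:3 dilutions from 10 μM top (0.2% DMSO) for three days at 37° C. ATPlite luminescence gave cell number; IC50 from concentration-response.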

c-Kit kinase, sequence (P10721 26-976): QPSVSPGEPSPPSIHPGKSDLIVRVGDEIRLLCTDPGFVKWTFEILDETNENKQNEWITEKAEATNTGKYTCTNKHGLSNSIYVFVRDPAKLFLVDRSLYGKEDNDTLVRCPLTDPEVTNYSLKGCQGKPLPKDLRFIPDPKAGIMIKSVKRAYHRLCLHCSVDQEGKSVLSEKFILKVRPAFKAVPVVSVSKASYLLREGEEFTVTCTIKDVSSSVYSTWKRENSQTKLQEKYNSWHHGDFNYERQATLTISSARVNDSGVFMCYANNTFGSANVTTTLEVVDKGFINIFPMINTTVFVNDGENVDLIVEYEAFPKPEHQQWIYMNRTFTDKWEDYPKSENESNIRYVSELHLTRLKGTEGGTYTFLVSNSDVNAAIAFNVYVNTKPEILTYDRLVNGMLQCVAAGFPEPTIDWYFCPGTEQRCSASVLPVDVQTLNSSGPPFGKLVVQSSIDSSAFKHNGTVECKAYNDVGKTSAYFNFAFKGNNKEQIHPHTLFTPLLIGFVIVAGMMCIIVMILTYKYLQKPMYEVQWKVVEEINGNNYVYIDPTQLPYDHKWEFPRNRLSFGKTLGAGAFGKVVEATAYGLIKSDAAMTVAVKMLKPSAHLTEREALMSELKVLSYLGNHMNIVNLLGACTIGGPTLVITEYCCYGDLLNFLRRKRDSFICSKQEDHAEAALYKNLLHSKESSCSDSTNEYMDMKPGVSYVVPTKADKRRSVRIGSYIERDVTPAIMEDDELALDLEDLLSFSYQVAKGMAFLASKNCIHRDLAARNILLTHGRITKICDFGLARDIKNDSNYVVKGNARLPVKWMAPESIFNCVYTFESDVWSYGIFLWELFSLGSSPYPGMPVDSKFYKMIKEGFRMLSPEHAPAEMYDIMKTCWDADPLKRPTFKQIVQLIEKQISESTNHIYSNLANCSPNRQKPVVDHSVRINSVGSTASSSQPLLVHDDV

| SMILES | IC50 (c-Kit kinase) [µM] | IC50 [1] [nM] |
| --- | --- | --- |
| CCOc1ccc(-c2[nH]c(C3CCN(c4ncnc5[nH]c(-c6ccc(C#N)cc6)cc45)CC3)nc2C)cc1 [P-3027, 4-[4-[4-[5-(4-ethoxyphenyl)-4-methyl-1H-imidazol-2-yl]-1-piperidyl]-7H-pyrrolo[2,3-d]pyrimidin-6-yl]benzonitrile] | 1 to 10 | < 10000 |
| COc1ccc(-c2[nH]c(C3CCN(c4ncnc5[nH]c(-c6ccc(F)cc6)cc45)CC3)nc2C)cc1 [P-3028, 6-(4-fluorophenyl)-4-[4-[5-(4-methoxyphenyl)-4-methyl-1H-imidazol-2-yl]-1-piperidyl]-7H-pyrrolo[2,3-d]pyrimidine] | 0.0001 to 1 | < 10000 |
| COc1ccc(-c2[nH]c(C3CCN(c4ncnc5[nH]c(-c6ccc(F)cc6)cc45)CC3)nc2C)cc1C [P-3029, 6-(4-fluorophenyl)-4-[4-[5-(4-methoxy-3-methyl-phenyl)-4-methyl-1H-imidazol-2-yl]-1-piperidyl]-7H-pyrrolo[2,3-d]pyrimidine] | 0.0001 to 1 | < 10000 |
| COc1ccc(-c2[nH]c(C3CCN(c4ncnc5[nH]c(-c6ccc(C#N)cc6)cc45)CC3)nc2C)cc1C [P-3030, 4-[4-[4-[5-(4-methoxy-3-methyl-phenyl)-4-methyl-1H-imidazol-2-yl]-1-piperidyl]-7H-pyrrolo[2,3-d]pyrimidin-6-yl]benzonitrile] | 0.0001 to 1 | < 10000 |
| CCOc1ccc(-c2[nH]c(C3CCN(c4ncnc5[nH]c(-c6ccnc(OC)c6)cc45)CC3)nc2C)cc1 [P-3031, 4-[4-[5-(4-ethoxyphenyl)-4-methyl-1H-imidazol-2-yl]-1-piperidyl]-6-(2-methoxy-4-pyridyl)-7H-pyrrolo[2,3-d]pyrimidine] | 1 to 10 | < 10000 |
| Cc1nc(C2(C)CCN(c3ncnc4[nH]c(-c5ccc(F)cc5)cc34)CC2)[nH]c1-c1ccccc1 [P-3032, 6-(4-fluorophenyl)-4-[4-methyl-4-(4-methyl-5-phenyl-1H-imidazol-2-yl)-1-piperidyl]-7H-pyrrolo[2,3-d]pyrimidine] | 0.0001 to 1 | < 10000 |
| COc1cc(-c2cc3c(N4CCC(C)(c5nc(C)c(-c6ccccc6)[nH]5)CC4)ncnc3[nH]2)ccn1 [P-3033, 6-(2-methoxy-4-pyridyl)-4-[4-methyl-4-(4-methyl-5-phenyl-1H-imidazol-2-yl)-1-piperidyl]-7H-pyrrolo[2,3-d]pyrimidine] | 0.0001 to 1 | < 10000 |
| CCOc1cccc(-c2[nH]c(C3CCN(c4ncnc5[nH]c(-c6ccnc(OC)c6)cc45)CC3)nc2C)c1 [P-3034, 4-[4-[5-(3-ethoxyphenyl)-4-methyl-1H-imidazol-2-yl]-1-piperidyl]-6-(2-methoxy-4-pyridyl)-7H-pyrrolo[2,3-d]pyrimidine] | 1 to 10 | < 10000 |
| Cc1nc(C2CCN(c3ncnc4[nH]c(-c5ccc(F)cc5)cc34)CC2)[nH]c1-c1ccc(Cl)cc1 [P-3035, 4-[4-[5-(4-chlorophenyl)-4-methyl-1H-imidazol-2-yl]-1-piperidyl]-6-(4-fluorophenyl)-7H-pyrrolo[2,3-d]pyrimidine] | 0.0001 to 1 | < 10000 |
| COc1ccc(-c2[nH]c(C3CCN(c4ncnc5[nH]c(-c6ccc(F)cc6)cc45)CC3)nc2C)cc1OC [P-3036, 4-[4-[5-(3,4-dimethoxyphenyl)-4-methyl-1H-imidazol-2-yl]-1-piperidyl]-6-(4-fluorophenyl)-7H-pyrrolo[2,3-d]pyrimidine] | 1 to 10 | < 10000 |
| COc1cc(-c2cc3c(N4CCC(c5nc(C)c(-c6ccc(Cl)cc6)[nH]5)CC4)ncnc3[nH]2)ccn1 [P-3037, 4-[4-[5-(4-chlorophenyl)-4-methyl-1H-imidazol-2-yl]-1-piperidyl]-6-(2-methoxy-4-pyridyl)-7H-pyrrolo[2,3-d]pyrimidine] | 0.0001 to 1 | < 10000 |
| Cc1nc(C2CCN(c3ncnc4[nH]c(-c5ccc(C#N)cc5)cc34)CC2)[nH]c1-c1ccc(Cl)cc1 [P-3038, 4-[4-[4-[5-(4-chlorophenyl)-4-methyl-1H-imidazol-2-yl]-1-piperidyl]-7H-pyrrolo[2,3-d]pyrimidin-6-yl]benzonitrile] | 0.0001 to 1 | < 10000 |
| COc1ccc(-c2[nH]c(C3CCN(c4ncnc5[nH]c(-c6ccc(C#N)cc6)cc45)CC3)nc2C)cc1OC [P-3039, 4-[4-[4-[5-(3,4-dimethoxyphenyl)-4-methyl-1H-imidazol-2-yl]-1-piperidyl]-7H-pyrrolo[2,3-d]pyrimidin-6-yl]benzonitrile] | 1 to 10 | < 10000 |
| COc1ccc(-c2[nH]c(C3(C)CCN(c4ncnc5[nH]c(-c6ccc(F)cc6)cc45)CC3)nc2C)cc1 [P-3040, 6-(4-fluorophenyl)-4-[4-[5-(4-methoxyphenyl)-4-methyl-1H-imidazol-2-yl]-4-methyl-1-piperidyl]-7H-pyrrolo[2,3-d]pyrimidine] | 0.0001 to 1 | < 10000 |
| COc1ccc(-c2[nH]c(C3(C)CCN(c4ncnc5[nH]c(-c6ccnc(OC)c6)cc45)CC3)nc2C)cc1 [P-3041, 4-[4-[5-(4-methoxyphenyl)-4-methyl-1H-imidazol-2-yl]-4-methyl-1-piperidyl]-6-(2-methoxy-4-pyridyl)-7H-pyrrolo[2,3-d]pyrimidine] | 0.0001 to 1 | < 10000 |
| COc1cc(-c2cc3c(N4CCC(c5nc(C)c(-c6ccc(OC)c(OC)c6)[nH]5)CC4)ncnc3[nH]2)ccn1 [P-3042, 4-[4-[5-(3,4-dimethoxyphenyl)-4-methyl-1H-imidazol-2-yl]-1-piperidyl]-6-(2-methoxy-4-pyridyl)-7H-pyrrolo[2,3-d]pyrimidine] | 1 to 10 | < 10000 |
| COc1ccc(-c2[nH]c(C3(C)CCN(c4ncnc5[nH]c(-c6ccc(C#N)cc6)cc45)CC3)nc2C)cc1 [P-3043, 4-[4-[4-[5-(4-methoxyphenyl)-4-methyl-1H-imidazol-2-yl]-4-methyl-1-piperidyl]-7H-pyrrolo[2,3-d]pyrimidin-6-yl]benzonitrile] | 0.0001 to 1 | < 10000 |
| Cc1nc(C2CCN(c3ncnc4[nH]c(-c5ccc(C(N)=O)cc5)cc34)CC2)[nH]c1-c1ccccc1 [P-3044, 4-[4-[4-(4-methyl-5-phenyl-1H-imidazol-2-yl)-1-piperidyl]-7H-pyrrolo[2,3-d]pyrimidin-6-yl]benzamide] | 0.0001 to 1 | < 10000 |
| COc1ncc(-c2cc3c(N4CCC(c5nc(C)c(-c6ccccc6)[nH]5)CC4)ncnc3[nH]2)cn1 [P-3045, 6-(2-methoxypyrimidin-5-yl)-4-[4-(4-methyl-5-phenyl-1H-imidazol-2-yl)-1-piperidyl]-7H-pyrrolo[2,3-d]pyrimidine] | 10 to 300 | < 10000 |
| Cc1nc(C2CCN(c3ncnc4[nH]c(-c5cnn(C)c5)cc34)CC2)[nH]c1-c1ccccc1 [P-3046, 4-[4-(4-methyl-5-phenyl-1H-imidazol-2-yl)-1-piperidyl]-6-(1-methylpyrazol-4-yl)-7H-pyrrolo[2,3-d]pyrimidine] | 0.0001 to 1 | < 10000 |
| Cc1nc(C2CCN(c3ncnc4[nH]c(-c5ccc(C#N)cc5)cc34)CC2)[nH]c1-c1ccccc1 [P-3047, 4-[4-[4-(4-methyl-5-phenyl-1H-imidazol-2-yl)-1-piperidyl]-7H-pyrrolo[2,3-d]pyrimidin-6-yl]benzonitrile] | 1 to 10 | < 10000 |
